The results in this text go back to US11884750B2, “Cationic cell penetrating peptides and the use thereof” (CELLTROY CO., LTD., priority 2021, dated 2024).

Entries after “also recorded” stand apart in the source; their conditions may differ.

For assay [1], the system named is HaCAT cells. The assay can be described thus: Cell penetration efficiency in human epidermal (skin) cells, 4 μM, flow cytometry. The format is cell-based. The conditions noted are these: 4 μM FITC-conjugated CPP, one hour. Here is the method:
The cell penetration efficiency of the cationic CPPs selected in Example 1 was evaluated using human epidermal cells. In further detail, HaCAT cells, which is a human epidermal cell line, were seeded in 24-well plates to have a cell density of 1×10^7 cells/well, and cultured in 10% FBS-added DMEM under conditions of 37° C. and 5% CO2 for 24 hours. Subsequently, the cells were treated 4 μM each of the FITC-conjugated CPP or FITC-conjugated TAT, and incubated for one hour. After the termination of the incubation, the cells were transferred to a sterile tube using 0.25% trypsin, and the medium was removed through centrifugation. Afterward, the cells were washed with 500 μL of D-PBS twice to completely remove the medium, and finally, resuspended in 400 μL of D-PBS and intracellular fluorescence was measured by flow cytometry (FACSCanto II).
(§1) To evaluate the cell penetration efficiency of the additionally selected cationic CPPs, an experiment was conducted using human epidermal cells or human neuroblastoma cells. In further detail, HaCAT cells, which is a human epidermal cell line, or SH-SYSY cells, which is a human neuroblastoma cell line, were seeded in 24-well plates to have a cell density of 1×10^7 cells/well and cultured in 10% FBS-added DMEM under conditions of 37° C. and 5% CO2 for 24 hours. In addition, the cells were treated with 4 μM each of FITC-conjugated peptides and FITC-conjugated TAT for one hour. After the completion of the culture, the cells were transferred to a sterile tube using 0.25% trypsin and centrifuged to remove the medium. Afterward, the cells were washed with 500 μL of D-PBS twice to completely remove the medium, and finally, resuspended in 400 μL of D-PBS and intracellular fluorescence was measured by flow cytometry (FACSCanto II).
(§2) Subsequently, to confirm whether the CPPs according to the present invention show excellent cell permeability into different types of cells/tissues, various tissue-derived cells were treated with biologically active molecule-conjugated CPPs to compare its delivery capacity with TAT. As in the previous examples, each cell was aliquoted in a plate at an appropriate density, and cultured in a 10% FBS-added medium under a condition of 37° C. and 5% CO2 for 24 hours. Subsequently, the cells were treated with 4 μM each of FITC-conjugated CPP or FITC-conjugated TAT and incubated for one hour. After the completion of the incubation, the cells were transferred to a sterile tube using 0.25% trypsin and centrifuged to remove the medium. Afterward, the cells were washed with 500 μL of D-PBS twice to completely remove the medium, and finally, resuspended in 400 μL of D-PBS and intracellular fluorescence was measured by flow cytometry (FACSCanto II).

For assay [2], the system named is SH-SY5Y cells. Nature of the assay: Cell penetration efficiency in human neuroblastoma cells, 4 μM, flow cytometry. The format is cell-based. The note with it: one hour; for cell permeability compared with TAT: 4 μM FITC-conjugated CPP, flow cytometry; for Score / Score/TAT: 4 μM FITC-conjugated peptide; for Score: intracellular fluorescence by flow cytometry; for Score/TAT: ratio to FITC-conjugated TAT. As for the experimental part:
The cell penetration efficiency of the cationic CPPs selected in Example 1 was evaluated in neuroblastoma. In further detail, SH-SYSY cells, which is a human neuroblastoma cell line, were seeded in 24-well plates to have a cell density of 1×10^7 cells/well, and cultured in 10% FBS-added DMEM under conditions of 37° C. and 5% CO2 for 24 hours. In addition, the cells were treated with 4 μM each of FITC-conjugated CPPs (C12, C14, C16, C31, C52, and C67), or FITC-conjugated TAT, and incubated for one hour. After the termination of the incubation, the cells were transferred to a sterile tube using 0.25% trypsin and centrifuged to remove the medium. Afterward, the cells were washed with 500 μL of D-PBS twice to completely remove the medium, and finally, resuspended in 400 μL of D-PBS and intracellular fluorescence was measured by flow cytometry (FACSCanto II).
as §1, §2

Assay [3] has as its system HGB cell line. Nature of the assay: Cell penetration efficiency in glioblastoma cells. The note with it: 4 μM FITC-conjugated CPP, one hour. The assay is classed as cell-based, human. Here is the method:
as §2

In assay [4] the test system is HDF cell line. The assay can be described thus: Cell penetration efficiency in skin cells (HDF). The assay is classed as cell-based. The conditions noted are these: 4 μM FITC-conjugated CPP, one hour. As for the experimental part:
as §2

For assay [5], the system named is HeLa cell line. Nature of the assay: Cell penetration efficiency using cervical cancer cells. The format is cell-based. The note with it: 4 μM FITC-conjugated CPP, one hour. Here is the method: as §2
Assay [6] deals with HT1080 cell line. The assay can be described thus: Cell penetration efficiency using connective tissue (fibrosarcoma) cells. The format is cell-based. The conditions noted are these: 4 μM FITC-conjugated CPP, one hour. Here is the method: as §2
In assay [7] the test system is HepG2 cell line. Nature of the assay: Cell penetration efficiency using liver cells. The assay is classed as cell-based. The note with it: 4 μM FITC-conjugated CPP, one hour. As for the experimental part:
as §2

The subject of assay [8] is HEK293T cell line. The assay can be described thus: Cell penetration efficiency using kidney cells. The note with it: 4 μM FITC-conjugated CPP, one hour. The assay is classed as cell-based. Here is the method:
as §2

The subject of assay [9] is A-427 cell line. The assay can be described thus: Cell penetration efficiency using lung cells. The conditions noted are these: A-427 lung cells, 4 μM FITC-conjugated CPP, one hour. The assay is classed as cell-based. Here is the method: as §2
Assay [10] deals with SNU-46 cell line. Nature of the assay: Cell penetration efficiency using laryngeal cells. The assay is classed as cell-based. The conditions noted are these: SNU-46 laryngeal cells, 4 μM FITC-conjugated CPP, one hour. Here is the method:
as §2

Assay [11] deals with macrophages. Nature of the assay: Cell penetration efficiency using macrophages. The format is cell-based. The note with it: macrophages differentiated from THP1 cells, 4 μM FITC-conjugated CPP, one hour. Here is the method:
as §2, with “II). Macrophages were used by inducing differentiation from THP1 cells. Specifically, the THP-1 cells were aliquoted on a cover glass laid on a 24-well plate to have a density of 6×10^4 cells/well, and after the addition of 100 ng/mL of phorbol 12-myristate 13-acetate (PMA), the cells were incubated for 48 hours to induce the differentiation into macrophages. After 48 hours, the cells were washed with Dulbecco's phosphate buffered saline (DPBS) to perform an experiment.” for “II).”

In assay [12] the test system is monocytes. Nature of the assay: Cell penetration efficiency using monocytes. The format is cell-based. The conditions noted are these: 4 μM FITC-conjugated CPP, one hour. As for the experimental part:
as §2

KKRKKRRKKRKVDP [C67]: the “cell permeability compared with TAT” value in [1] was “increased cell permeability”; in assay [2], “higher cell permeability”; in assay [3], “higher cell permeability”; in assay [4], “higher cell permeability”; in assay [5], “higher cell permeability”; in assay [6], “higher cell permeability”. The “cell permeability compared with TAT” value in assay [7], in assay [8], in assay [9] and in [10] was “higher cell permeability” each time. In assay [2], the Score is 2328. Besides, in assay [2], the Score/TAT amounted to 4.486.

As to YRPRRKKITKKLKR [C283], the Score in [2] is listed as 514. In [2], the Score/TAT is listed as 0.990. Further, the “cell permeability compared with TAT” value in [11], in assay [12], in [3], in [5], in assay [6] and in [8] was “higher cell permeability” each time. Moreover, the “cell permeability compared with TAT” value in [10] was “higher cell permeability”.

With RPLVRRRLRRAVRR [C226], the “cell permeability compared with TAT” value in assay [1], in assay [11], in assay [12], in assay [5] and in assay [10] was “higher cell permeability” throughout. The same sequence yielded a Score in assay [2] of 474. In addition, the Score/TAT in [2] is 0.913.

For LMPSKIRRRKKRKK [C85], the “cell permeability compared with TAT” value in assay [1], in assay [2], in assay [11], in [12], in assay [4] and in [6] was “higher cell permeability” throughout. The “cell permeability compared with TAT” value in [10] was “higher cell permeability”. This sequence also gave a Score in [2] of 798. The Score/TAT in [2] is listed as 1.538.

Consider ALVLLRRRRRDRKP [C14], for which the “cell permeability compared with TAT” value in assay [1] is on record as “increased cell permeability; also recorded: higher cell permeability”; in [2], “higher cell permeability”; in [3] it was “higher cell permeability”; in assay [4] it was “higher cell permeability”; in assay [5], “higher cell permeability”; in assay [6], “higher cell permeability”. The “cell permeability compared with TAT” value in assay [7], in [8], in assay [9] and in assay [10] was “higher cell permeability” throughout. Also, in assay [2], the Score is 1382. The Score/TAT in assay [2] was 2.663.

MPKIRKLKRRKKFR [C79]: the “cell permeability compared with TAT” value in assay [1], in [2], in [12], in [3], in assay [4] and in [5] was “higher cell permeability” each time. For the same sequence, the “cell permeability compared with TAT” value in assay [6], in assay [7] and in [10] was “higher cell permeability” throughout. The sequence also registered a Score in assay [2] of 863. Besides, the Score/TAT in [2] turned out to be 1.663.
